Assay results published in patent publication US8071099B2, “Anti-FLT3 antibodies” (ImClone, LLC, priority 2008, dated 2011).

Experiments:
[1] = system: SEM-K2 cells; assay: Combination therapy with EB10 and MTX in SEM-K2 Leukemia Model; format: in vivo, NOD/SCID mice; conditions: EB10 10 mg/kg i.p. 2×/week; MTX 100 mg/kg Q7D; combination of both
Method: One day prior to the start of treatment, i.v. inject 65, 7 weeks old, male NOD/SCID mice with 5×10^5 SEM-K2 cells suspended in PBS in a total volume of 200 μl. Drop from the study mice receiving less than 90% of cells intravenously.
Prepare MTX (Sigma Chemical, Cat # M9929) in USP Saline at a concentration of 10 mg/ml and dose Q7D for three cycles. […] Dose all mice at 10 ml/kg i.p. In the combination group, dose MTX at least one hour before EB 10 treatment starting on day 1. Record mouse survival daily. Follow the mice for survival, and sacrifice any mouse displaying signs of morbidity/mortality; mark as dead on the day of sacrifice. End the study on day 168 and sacrifice any mice surviving to that point. Compare survival in the treatment groups by Log Rank Test between treatment groups.

[2] = system: BaF3-ITD cells; assay: Cell proliferation assay ([3H]-thymidine), FL-independent, BaF3-ITD; format: cell-based
Method: Harvest EOL-1 cells and wash three times using serum-free RPMI 1640 medium. Culture cells in serum-free RPMI 1640 medium for 12 hours. For BaF3-ITD cells, perform the proliferation assay in RPMI 1640 medium supplemented with 10% FCS in the absence of exogenous FL. Reconstitute cells in serum-free AIM-V medium, plate in triplicates in a flat-bottomed 96-well plate (1×104/100 μl/well) and incubate with varying concentrations of antibodies (from 0 to 100 nM) and 30 ng/ml of FL at 37° C. for 68 hours. As a background control, incubate cells with medium alone in the absence of exogenous FL. Pulse cells with 0.25 μCi/well of [^3H]-thymidine for 4 hours. Harvest cells and measure cpm in a PerkinElmer Wallace-1205 Betaplate Liquid Scintillation Counter (Wellesley, Mass.). Calculate the percent inhibition of FL-induced proliferation for EOL-1 cells; deduce the cpm of background proliferation (i.e., cell samples not stimulated with FL) from the cpm of all experimental samples. Calculate percent inhibition using the following formula: [(cpm of untreated sample—cpm of antibody-treated sample)/cpm of untreated sample]×100%.

[3] = system: EOL-1 leukemia cells; assay: EOL-1 Xenograft Human AML Leukemia Model; format: in vivo, NOD-SCID mice; conditions: 10 μg
[4] = system: FLT3-negative JM1 or BaF3-control cell lines; assay: Flow cytometric analysis, FLT3-negative cell lines; format: binding
[5] = system: Human Leukemia Cells; assay: Bone Marrow Engraftment of Human Leukemia Cells; format: in vivo, mice; conditions: 500 μg/dose, versus control-IgG treated group
Method: Bone Marrow Engraftment of Human Leukemia Cells: Harvest bone marrow from the femurs of EB10-treated mice (500 μg/dose) and the control-IgG treated group at day 20. Analyze cells for human CD45 by flow cytometry at 6 and 14 weeks post leukemia cell injection for the degree of tumor cell infiltration of bone marrow. Compare the degree of tumor cell infiltration of bone marrow using immunohistochemical staining with a fluorescence-labeled anti-human CD45 antibody.

CN(Cc1cnc2nc(N)nc(N)c2n1)c1ccc(C(=O)N[C@@H](CCC(=O)O)C(=O)O)cc1 [MTX, methotrexate, reference compound]
mouse survival [1]: also prolonged survival

EB10: recombinant human monoclonal antibody, full length IgG1κ targeting human FLT3; heavy chain SEQ ID NO:25, light chain SEQ ID NO:28
% Inhibition of FL-independent proliferation (Mean ± Standard deviation) ([2]; 6 nM): 9.6 ± 3.1% | % Inhibition of FL-independent proliferation (Mean ± Standard deviation) ([2]; 13 nM): 13.0 ± 4.0% | % Inhibition of FL-independent proliferation (Mean ± Standard deviation) ([2]; 25 nM): 23.3 ± 0.6% | % Inhibition of FL-independent proliferation (Mean ± Standard deviation) ([2]; 50 nM): 28.6 ± 3.1% | % Inhibition of FL-independent proliferation (Mean ± Standard deviation) ([2]; 100 nM): 29.2 ± 3.0% | effect on survival [3]: No effect | binding by flow cytometric analysis ([4]; BaF3-control cell line): No binding | binding by flow cytometric analysis ([4]; FLT3-negative JM1 cell line): No binding | mouse survival [1]: significantly prolonged mouse survival | number of tumor cells in bone marrow (human CD45) [5]: decreased significantly
